# Source: article PMC6131539, “Behavioral Effects of a Potential Novel TAAR1 Antagonist” (Frontiers in Pharmacology, 2018)
# What was measured:
# human TAAR1 receptor = tested on: human TAAR1 receptor; design: method as in Bradaia et al., 2009; settings: ref Bradaia et al., 2009; cited from earlier work
# mouse TAAR1 = target: mouse TAAR1; design: method as in Bradaia et al., 2009; settings: ref Bradaia et al., 2009; read-out: affinity for the mouse TAAR1; cited from earlier work
# VTA dopamine neurons = assay: Electrophysiology: spontaneous firing of VTA dopamine neurons in slices; assay type: cell-based, C57Bl/6J mice; settings: 10 nM, bath applied 5 min; positive control
# Description: All electrophysiological recordings were performed in slice preparations from C57Bl/6J mice (P21-P30). Briefly, mice were anaesthetized with isoflurane and transcardially perfused with an ice-cold sucrose solution containing (in mM): 50 sucrose, 26.2 NaHCO3, 1.25 glucose, 4.9 MgCl2, 3 kynurenic acid, 0.1 CaCl2, and 1.32 ascorbic acid in bicarbonate-buffered solution (aCSF, described below). Mice were then decapitated and brains were extracted. […] Cells were visualized on an upright microscope using “Dodt-type” gradient contrast infrared optics ([Dodt et al., 2002]) and whole-cell recordings were made using a MultiClamp 700B amplifier (Axon Instruments, Union City, CA, United States). Recording electrodes (3–5 MΩ) were filled with (in mM): 136 potassium-D-gluconate, 4 MgCl2, 1.1 HEPES, 5, EGTA, 10 sodium creatine phosphate, 3.4 Mg-ATP, and 0.1 Na2GTP. […] Spontaneous firing activity was recorded in current-clamp mode. […] Firing data for all neurons was analyzed with the MiniAnalysis program (Synaptosoft) using the same criteria. Drug-induced changes in firing are expressed as a percentage of baseline. Drug effects were calculated by comparing the response during the baseline/pre-drug period to the response 5 min after onset of drug administration. […] We therefore assessed the effects of compound 22 on firing rate of dopamine neurons. […]
structure (smiles),measurement,setting,value
CCOc1cccc(NC(=O)c2ccc(N3CCCC3)c(C(F)(F)F)c2)c1 [EPPTB],binding to the human TAAR1 receptor,human TAAR1 receptor,does not bind
same,Ki,mouse TAAR1,0.9 nM
same,increase in firing of dopamine neurons,VTA dopamine neurons,74%
